# Activity calls are given as the source filed them. The rule behind the calls is not given here.
# Test system: GENE-TOX genotoxicity assays, various organisms and cells
# Experiment: GENE-TOX mutagenicity studies
# Conditions: for call: Assay Type: In vivo carcinogenicity studies
# [1] = Species/Cell Type: Salmonella typhimurium (one or more of the five standard strains: TA98, TA100, TA1535, TA1537, and TA1538), Assay Type: Histidine reverse gene mutation, Ames assay, Assay Code: SAL+, Evaluation Type: Evaluation A (Pre-1980)
# [2] = Species/Cell Type: Nonhuman, Assay Code: CCG+, Evaluation Type: Evaluation A (Pre-1980)
# [3] = Species/Cell Type: Nonhuman, Assay Type: Sister-chromatid exchange (SCE) in vitro, Assay Code: SC2+D, Dose Response: With dose response, Evaluation Type: Evaluation B (Post-1980)
# [4] = Species/Cell Type: Salmonella typhimurium (one or more of the five standard strains: TA98, TA100, TA1535, TA1537, and TA1538), Assay Type: Histidine reverse gene mutation, Ames assay, Assay Code: SAL+*, Activation: With metabolic activation, Evaluation Type: Evaluation A (Pre-1980)
# [5] = Species/Cell Type: Salmonella typhimurium (one or more of the five standard strains: TA98, TA100, TA1535, TA1537, and TA1538), Assay Type: Histidine reverse gene mutation, Ames assay, Assay Code: SALT, Evaluation Type: Evaluation A (Pre-1980)
# [6] = Species/Cell Type: Mammalian polychromatic erythrocytes, Assay Type: Micronucleus test, chromosome aberrations, Assay Code: MNT-, Evaluation Type: Evaluation B (Post-1980)
# [7] = Species/Cell Type: Escherichia coli WP2, Assay Type: Tryptophan reverse gene mutation, Assay Code: WP2+, Evaluation Type: Evaluation A (Pre-1980)
compound,measurement,setting,value
O=[N+]([O-])c1ccc(SSc2ccc([N+](=O)[O-])cc2)cc1,mutagenic call,[1],active; positive
COc1cccc(OC)c1C(=O)N[C@@H]1C(=O)N2[C@@H]1SC(C)(C)[C@@H]2C(=O)O,mutagenic call,"Species/Cell Type: Escherichia coli polA (W3119 vs P3478), Assay Type: Rec-assay, DNA effects (bacterial DNA repair), Assay Code: RE1-, Evaluation Type: Evaluation A (Pre-1980)",inactive; negative
CCc1cccc(CC)c1N(COC)C(=O)CCl,mutagenic call,"Species/Cell Type: Saccharomyces cerevisiae, Assay Type: Mitotic recombination or gene conversion, Assay Code: YEC+*, Activation: With metabolic activation, Evaluation Type: Evaluation A (Pre-1980)",active; positive
c1ccc2cc3c(cc2c1)-c1cccc2cccc-3c12,call,[2],active; positive
COc1ccc2c(c1)CCC(c1ccccc1)=C2c1ccc(OCCN2CCCC2)cc1,mutagenic call,"Species/Cell Type: Rabbit, Sex: Male, Assay Type: Sperm morphology, Assay Code: SPR+, Evaluation Type: Evaluation A (Pre-1980)",active; positive
O[C@@H]1C=Cc2c(ccc3cc4ccccc4cc23)[C@H]1O,mutagenic call,"Species/Cell Type: Chinese hamster lung (V79) cells, Assay Type: Forward gene mutation at the HPRT or ouabain locus, Assay Code: V79+, Evaluation Type: Evaluation A (Pre-1980)",active; positive
same,call,"Species/Cell Type: Nonhuman, Assay Code: CCG+L, Evaluation Type: Evaluation A (Pre-1980)",active; positive
same,mutagenic call,[3],active; positive
same,mutagenic call,[4],active; positive
CNc1ccc(Cl)cc1C(=O)c1ccccc1,mutagenic call,[5],no conclusion
O=Nc1ccc2ccc3cccc4ccc1c2c34,mutagenic call,"Species/Cell Type: Chinese hamster ovary (CHO) cells, Assay Type: Forward gene mutation at the HPRT locus, Assay Code: CHO+, Evaluation Type: Evaluation B (Post-1980)",active; positive
ClCc1ccc(-c2ccccc2)cc1,mutagenic call,"Species/Cell Type: Chinese hamster ovary (CHO) cells, Assay Type: Forward gene mutation at the HPRT locus, Assay Code: CHOT, Evaluation Type: Evaluation B (Post-1980)",no conclusion
same,mutagenic call,"Species/Cell Type: Human lymphocytes, Assay Type: Sister-chromatid exchange (SCE) in vitro, Assay Code: SCL+D, Dose Response: With dose response, Evaluation Type: Evaluation B (Post-1980)",active; positive
same,mutagenic call,"Species/Cell Type: Human, Assay Type: Sister-chromatid exchange (SCE) in vitro, Assay Code: SC1+D, Dose Response: With dose response, Evaluation Type: Evaluation B (Post-1980)",active; positive
same,mutagenic call,[6],inactive; negative
Cc1cccc2ncccc12,mutagenic call,[4],active; positive
C1=CC2c3ccccc3OC2O1 (stereo not drawn),mutagenic call,[4],active; positive
CN(Cc1cnc2nc(N)nc(N)c2n1)c1ccc(C(=O)N[C@@H](CCC(=O)O)C(=O)O)cc1,mutagenic call,"Species/Cell Type: Arabidopsis species, Assay Type: Gene mutation, Assay Code: ARM-, Evaluation Type: Evaluation A (Pre-1980)",inactive; negative
same,mutagenic call,[7],active; positive
same,mutagenic call,"Species/Cell Type: Escherichia coli polA (W3119 vs P3478), Assay Type: Rec-assay, DNA effects (bacterial DNA repair), Assay Code: RE1T, Evaluation Type: Evaluation A (Pre-1980)",no conclusion
same,mutagenic call,"Species/Cell Type: Human diploid fibroblasts, Assay Type: Unscheduled DNA synthesis (UDS) in vitro, DNA effects, Assay Code: UDH-, Evaluation Type: Evaluation A (Pre-1980)",inactive; negative
same,mutagenic call,"Species/Cell Type: Human lymphocytes, Assay Type: Sister-chromatid exchange (SCE) in vivo, Assay Code: SCY+, Evaluation Type: Evaluation B (Post-1980)",active; positive
same,mutagenic call,"Species/Cell Type: Human, Sex: Male, Assay Type: Sperm morphology, Assay Code: SPH+, Evaluation Type: Evaluation A (Pre-1980)",active; positive
same,mutagenic call,"Species/Cell Type: Mammalian oocytes or early embryo, Assay Type: Chromosome aberrations in vivo, Assay Code: CYO+D, Dose Response: With dose response, Evaluation Type: Evaluation A (Pre-1980)",active; positive
same,mutagenic call,"Species/Cell Type: Mammalian polychromatic erythrocytes, Assay Type: Micronucleus test, chromosome aberrations, Assay Code: MNT+, Evaluation Type: Evaluation A (Pre-1980)",active; positive
same,mutagenic call,"Species/Cell Type: Mouse (C3H/10T1/2) cells, Assay Type: Cell transformation, Assay Code: CTH+D, Dose Response: With dose response, Evaluation Type: Evaluation A (Pre-1980)",active; positive
same,mutagenic call,"Species/Cell Type: Mouse lymphoma (L5178Y) cells, Assay Type: Forward gene mutation at the thymidine kinase (TK) locus, chromosome aberrations, Assay Code: L51+, Evaluation Type: Evaluation A (Pre-1980)",active; positive
same,mutagenic call,"Species/Cell Type: Neurospora crassa, Assay Type: Aneuploidy, chromosome aberrations, Assay Code: NEN+, Evaluation Type: Evaluation A (Pre-1980)",active; positive
same,mutagenic call,"Species/Cell Type: Nonhuman, Assay Type: Chromosome aberrations in vitro, Assay Code: CY&+D, Dose Response: With dose response, Evaluation Type: Evaluation A (Pre-1980)",active; positive
same,call,"Species/Cell Type: Nonhuman, Assay Code: CCG-L, Evaluation Type: Evaluation A (Pre-1980)",inactive; negative
same,mutagenic call,"Species/Cell Type: Nonhuman, Assay Type: Sister-chromatid exchange (SCE) in vitro, Assay Code: SC2+, Evaluation Type: Evaluation A (Pre-1980)",active; positive
same,mutagenic call,"Species/Cell Type: Rodents, Sex: Male, Assay Type: Dominant lethal test, Assay Code: DLTT, Evaluation Type: Evaluation A (Pre-1980)",no conclusion
same,mutagenic call,"Species/Cell Type: Saccharomyces cerevisiae, Assay Type: Mitotic recombination or gene conversion, Assay Code: YEH+, Evaluation Type: Evaluation A (Pre-1980)",active; positive
same,mutagenic call,[5],no conclusion
same,mutagenic call,"Species/Cell Type: Serratia marcesens, Assay Type: Reverse gene mutation, host-mediated assay, Assay Code: HMC+, Evaluation Type: Evaluation A (Pre-1980)",active; positive
same,mutagenic call,"Species/Cell Type: Syrian hamster embryo (SHE) cells, Assay Type: Cell transformation, clonal assay, Assay Code: CTC-, Evaluation Type: Evaluation A (Pre-1980)",inactive; negative
Oc1c2ccccc2c2ccc3cccc4ccc1c2c43,mutagenic call,"Species/Cell Type: Chinese hamster lung (V79) cells, Assay Type: Forward gene mutation at the HPRT or ouabain locus, Assay Code: V79+/-*, Activation: With metabolic activation, Evaluation Type: Evaluation A (Pre-1980)","inactive; positive without activation, negative with activation"
same,call,"Species/Cell Type: Nonhuman, Assay Code: CCGT, Evaluation Type: Evaluation A (Pre-1980)",no conclusion
same,mutagenic call,[1],active; positive
COc1ccc(N)c(OC)c1,call,"Species/Cell Type: Nonhuman, Assay Code: CCG-, Evaluation Type: Evaluation A (Pre-1980)",inactive; negative
Nc1nc(-c2ccc([N+](=O)[O-])o2)cs1,mutagenic call,[7],active; positive
same,mutagenic call,"Species/Cell Type: Escherichia coli WP2 UVRA, Assay Type: Tryptophan reverse gene mutation, Assay Code: WPU-, Evaluation Type: Evaluation A (Pre-1980)",inactive; negative
same,mutagenic call,[3],active; positive
same,mutagenic call,[1],active; positive
O=[N+]([O-])c1cccc2cn[nH]c12,mutagenic call,[1],active; positive
Cc1c2ccccc2cc2c(F)cc3ccccc3c12,mutagenic call,"Species/Cell Type: Mouse prostate cells, Assay Type: Cell transformation, Assay Code: CTM+, Evaluation Type: Evaluation A (Pre-1980)",active; positive
CC(=O)[O-].CC(=O)[O-].[Co+2],mutagenic call,"Species/Cell Type: Syrian hamster embryo (SA7/SHE) cells, Assay Type: Cell transformation, viral enhanced, Assay Code: CT7+, Evaluation Type: Evaluation A (Pre-1980)",active; positive
CCCCNCCCCO,mutagenic call,"Species/Cell Type: Nonhuman, Assay Type: Chromosome aberrations in vitro, Assay Code: CY&-, Evaluation Type: Evaluation A (Pre-1980)",inactive; negative
same,mutagenic call,"Species/Cell Type: Nonhuman, Assay Type: Sister-chromatid exchange (SCE) in vitro, Assay Code: SC2T, Evaluation Type: Evaluation A (Pre-1980)",no conclusion
CS(=O)(=O)OCCCOS(C)(=O)=O,mutagenic call,"Species/Cell Type: Drosophila melanogaster, Assay Type: Sex-linked recessive lethal gene mutation, Assay Code: SRL+, Evaluation Type: Evaluation A (Pre-1980)",active; positive
same,mutagenic call,"Species/Cell Type: Rat, Sex: Male, Assay Type: Sperm morphology, Assay Code: SPA+, Evaluation Type: Evaluation A (Pre-1980)",active; positive
O=C(O)c1ccccc1O,mutagenic call,"Species/Cell Type: Saccharomyces cerevisiae, Assay Type: Reverse gene mutation, Assay Code: YER+, Evaluation Type: Evaluation A (Pre-1980)",active; positive
same,mutagenic call,"Species/Cell Type: Salmonella typhimurium (one or more of the five standard strains: TA98, TA100, TA1535, TA1537, and TA1538), Assay Type: Histidine reverse gene mutation, Ames assay, Assay Code: SAL-, Evaluation Type: Evaluation A (Pre-1980)",inactive; negative
CCOC(C)=O,mutagenic call,"Species/Cell Type: Bacillus subtilis (H17 vs M45), Assay Type: Rec-assay, spot test, DNA effects (bacterial DNA repair), Assay Code: REWT, Evaluation Type: Evaluation A (Pre-1980)",no conclusion
same,mutagenic call,[6],inactive; negative
COc1cc2c(c3oc(=O)c4c(c13)CCOC4=O)[C@@H]1CCO[C@@H]1O2,mutagenic call,"Species/Cell Type: Bacillus subtilis (H17 vs M45), Assay Type: Rec-assay, spot test, DNA effects (bacterial DNA repair), Assay Code: REW-, Evaluation Type: Evaluation A (Pre-1980)",inactive; negative
same,mutagenic call,"Species/Cell Type: Chinese hamster lung (V79) cells, Assay Type: Forward gene mutation at the HPRT or ouabain locus, Assay Code: V79-*, Activation: With metabolic activation, Evaluation Type: Evaluation A (Pre-1980)",inactive; negative
same,mutagenic call,"Species/Cell Type: Human diploid fibroblasts, Assay Type: Unscheduled DNA synthesis (UDS) in vitro, DNA effects, Assay Code: UDH-*, Activation: With metabolic activation, Evaluation Type: Evaluation A (Pre-1980)",inactive; negative
same,mutagenic call,"Species/Cell Type: Nonhuman, Assay Type: Sister-chromatid exchange (SCE) in vitro, Assay Code: SC2+D*, Activation: With metabolic activation, Dose Response: With dose response, Evaluation Type: Evaluation B (Post-1980)",active; positive
same,mutagenic call,"Species/Cell Type: Rat primary hepatocytes, Assay Type: Unscheduled DNA synthesis (UDS) in vitro, DNA effects, Assay Code: UDP-, Evaluation Type: Evaluation A (Pre-1980)",inactive; negative
same,mutagenic call,[5],no conclusion
ClCc1c2ccccc2c(Cl)c2ccccc12,mutagenic call,[1],active; positive
O=Nc1ccc(Nc2ccccc2)cc1,call,[2],active; positive
